# Data as given in ChEMBL document CHEMBL1833830, “1-[2-(2-Benzoyl- and 2-benzylphenoxy)ethyl]uracils as potent anti-HIV-1 agents” (Bioorg Med Chem, 2011).
# Activity calls are given as the source filed them. No cut-off for these calls is given here.
# Columns and labels:
# Human alphaherpesvirus 1 = assay: Antiviral activity against HSV1 assessed as inhibition of viral replication; assay type: functional, organism-based
# [1] = Cytotoxicity against human CEM cells after 4 days by MTT assay; assay type: cell-based; conditions: CEM cells (CCRF-CEM)
# Yellow fever virus = assay: Antiviral activity against Yellow fever virus assessed as inhibition of viral replication; assay type: functional, organism-based
# [2] = tested on: Respiratory syncytial virus; assay: Antiviral activity against Respiratory syncytial virus assessed as inhibition of viral replication; assay type: functional, organism-based
# Dengue virus = assay: Antiviral activity against Dengue virus assessed as inhibition of viral replication; assay type: functional, organism-based
# [3] = target: Human immunodeficiency virus type 1 reverse transcriptase (Human immunodeficiency virus 1, UniProt Q72547); assay: Inhibition of RNA-dependent DNA polymerase activity of HIV1 reverse transcriptase p66/p51 heterodimer using [8-3H]dGTP as substrate after 30 mins by liquid scintillation counting
# Rift Valley fever virus = assay: Antiviral activity against Rift Valley fever virus assessed as inhibition of viral replication; assay type: functional, organism-based
# [4] = Selectivity index, ratio of CC50 for human CEM cells to EC50 for HIV1 3B; assay type: toxicity, cell-based, CCRF-CEM; conditions: read-out: Ratio CC50/EC50
# [5] = tested on: Human immunodeficiency virus 2; assay: Antiviral activity against Human immunodeficiency virus type 2 ROD infected in human MT4 cells assessed as inhibition of virus-induced cytopathic effect after 4 days by MTT assay; assay type: functional, organism-based; conditions: ISOLATE ROD
# Human alphaherpesvirus 2 = assay: Antiviral activity against HSV-2 assessed as inhibition of viral replication; assay type: functional, organism-based
# West Nile virus = assay: Antiviral activity against West Nile virus assessed as inhibition of viral replication; assay type: functional, organism-based
# [6] = tested on: Vesicular stomatitis virus; assay: Antiviral activity against Vesicular stomatitis virus assessed as inhibition of viral replication; assay type: functional, organism-based
# Human respirovirus 3 = assay: Antiviral activity against Parainfluenza 3 virus assessed as inhibition of viral replication; assay type: functional, organism-based
# [7] = tested on: Human immunodeficiency virus 2; assay: Antiviral activity against Human immunodeficiency virus type 2 ROD infected in human CEM cells assessed as inhibition of virus-induced giant cell formation after 4 days by microscopic analysis; assay type: functional, organism-based; conditions: ISOLATE ROD, CCRF-CEM
# [8] = tested on: Mammalian orthoreovirus 1; assay: Antiviral activity against Reovirus 1 assessed as inhibition of viral replication; assay type: functional, organism-based
# Coxsackievirus B4 = assay: Antiviral activity against Coxsackievirus B4 assessed as inhibition of viral replication; assay type: functional, organism-based
# Vaccinia virus = assay: Antiviral activity against Vaccinia virus assessed as inhibition of viral replication; assay type: functional, organism-based; conditions: Orthopoxvirus vaccinia
# Feline coronavirus = assay: Antiviral activity against Feline coronavirus assessed as inhibition of viral replication; assay type: functional, organism-based
# Sindbis virus = assay: Antiviral activity against Sindbis virus assessed as inhibition of viral replication; assay type: functional, organism-based
# [9] = tested on: Human immunodeficiency virus 1; assay: Antiviral activity against HIV1 3B infected in human CEM cells assessed as inhibition of virus-induced giant cell formation after 4 days by microscopic analysis; assay type: functional, organism-based; conditions: Human immunodeficiency virus 1, 3B, CCRF-CEM, 96 h
# [10] = Inhibition of DNA-dependent DNA polymerase activity of HIV1 reverse transcriptase p66/p66 homodimer using activated DNA and [alpha-32P]dATP after 30 mins by liquid scintillation counting; parameters: species or system Human immunodeficiency virus 1
# Punta Toro virus = assay: Antiviral activity against Punta Toro virus assessed as inhibition of viral replication; assay type: functional, organism-based
# [11] = Cytotoxicity against human MT4 cells after 4 days by MTT assay; assay type: cell-based
# in vitro [12] = conditions: human, MT4 cells
# [13] = Solubility of the compound in 10% DMSO after overnight incubation by UV spectrometric analysis; assay type: physicochemical
# [14] = Solubility of the compound in 0.1% DMSO after overnight incubation by UV spectrometric analysis; assay type: physicochemical
# [15] = tested on: Human immunodeficiency virus 1; assay type: functional, organism-based; conditions: Human immunodeficiency virus 1, 3B, MT4, 96 h
# [16] = tested on: Human immunodeficiency virus 1; assay: microbe, parasite or virus in culture; conditions: Human immunodeficiency virus 1, 3B, MT4, 96 h
# in vitro [17] = conditions: human, MT4 cells; remark: listed apart in the source
SMILES,Activity (Human alphaherpesvirus 1),Activity (Yellow fever virus),Activity [2],Activity (Dengue virus),Ki [3] [nM],Activity (Rift Valley fever virus),Activity [5],Activity (Human alphaherpesvirus 2),Activity (West Nile virus),Activity [6],Activity (Human respirovirus 3),Activity [7],Activity [8],Activity (Coxsackievirus B4),Activity (Vaccinia virus),Activity (Feline coronavirus),Activity (Sindbis virus),Ki [10] [nM],Activity (Punta Toro virus),CC50 at 96 h [11] [nM],also measured
Cc1cc(C)cc(C(O)c2cc(Cl)ccc2OCCn2ccc(=O)[nH]c2=O)c1 (stereo not given),inactive,inactive,inactive,inactive,> 249000,inactive,inactive,inactive,inactive,inactive,inactive,inactive,inactive,inactive,inactive,inactive,inactive,> 50000,inactive,,CC50 at 96 h [1]: > 20000 nM; selectivity ratio [4]: > 1; EC50 [9]: ≥ 20000 nM
O=C(c1cc(F)cc(F)c1)c1cc(Cl)ccc1OCCn1ccc(=O)[nH]c1=O,inactive,inactive,inactive,inactive,360,inactive,inactive,inactive,inactive,inactive,inactive,inactive,inactive,inactive,inactive,inactive,inactive,770,inactive,> 307000,selectivity ratio (in vitro [12]): 1; solubility [13]: 17.6 µM; solubility [14]: 7.3 µM; EC50 [15]: > 307000 nM; EC50 [16]: 27 nM; selectivity ratio (in vitro [17]): > 11400
O=C(c1cc(Cl)cc(Cl)c1)c1cc(Br)ccc1OCCn1ccc(=O)[nH]c1=O,inactive,inactive,inactive,inactive,160,inactive,inactive,inactive,inactive,inactive,inactive,inactive,inactive,inactive,inactive,inactive,inactive,690,inactive,> 258000,selectivity ratio (in vitro [12]): > 10; solubility [13]: 1.5 µM; solubility [14]: 0.2 µM; EC50 [15]: 24800 nM; EC50 [16]: 17 nM; selectivity ratio (in vitro [17]): > 15200
Cc1cc(C)cc(C(=O)c2cc(C)ccc2OCCn2ccc(=O)[nH]c2=O)c1,inactive,inactive,inactive,inactive,2000,inactive,inactive,inactive,inactive,inactive,inactive,inactive,inactive,inactive,inactive,inactive,inactive,2400,inactive,179000,selectivity ratio (in vitro [12]): < 1; solubility [13]: 58.5 µM; solubility [14]: 28.9 µM; EC50 [15]: > 179000 nM; EC50 [16]: 58 nM; selectivity ratio (in vitro [17]): 3080
Cc1cc(C)cc(C(=O)c2cc(Br)ccc2OCCn2ccc(=O)[nH]c2=O)c1,inactive,inactive,inactive,inactive,1700,inactive,inactive,inactive,inactive,inactive,inactive,inactive,inactive,inactive,inactive,inactive,inactive,770,inactive,> 282000,selectivity ratio (in vitro [12]): 1; solubility [13]: 6.6 µM; solubility [14]: 1.8 µM; EC50 [15]: > 282000 nM; EC50 [16]: 23 nM; selectivity ratio (in vitro [17]): > 12300
Cc1cc(C)cc(C(=O)c2cc(Cl)ccc2OCCn2cc(C)c(=O)[nH]c2=O)c1,inactive,inactive,inactive,inactive,1100,inactive,inactive,inactive,inactive,inactive,inactive,inactive,inactive,inactive,inactive,inactive,inactive,1200,inactive,> 303000,selectivity ratio (in vitro [12]): > 74; EC50 [15]: 4090 nM; EC50 [16]: 44 nM; selectivity ratio (in vitro [17]): > 6880
